According to patent US9902702B2, “Spirocycloheptanes as inhibitors of rock” (BRISTOL-MYERS SQUIBB COMPANY, priority 2014, dated 2018):
Where a name gives a salt, the structure may show the parent alone.

Target: ROCK2 (Homo sapiens, UniProt O75116)
Assay: ROCK assay: phosphorylation of FITC peptide substrate, LABCHIP 3000 mobility shift
Type: biochemical
Details: 5 μM ATP, 1.5 μM peptide substrate; read-out: ROCK2 Activity (ROCK IC50 range)
Summary of the method: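 Rho kinase variant phosphorylates 1.5 μM FITC-AHA-AKRRRLSSLRA-OH with 5 μM ATP in 20 mM HEPES pH 7.5, 20 mM MgCl2, 0.015% Brij-35, 4 mM DTT, DMSO <2%. EDTA stops the reaction, and phospho and non-phospho peptides are resolved by LabChip 3000 mobility shift. IC50 from dose-response curve fit.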

Chain of ROCK2 (O75116 whole entry, species assumed): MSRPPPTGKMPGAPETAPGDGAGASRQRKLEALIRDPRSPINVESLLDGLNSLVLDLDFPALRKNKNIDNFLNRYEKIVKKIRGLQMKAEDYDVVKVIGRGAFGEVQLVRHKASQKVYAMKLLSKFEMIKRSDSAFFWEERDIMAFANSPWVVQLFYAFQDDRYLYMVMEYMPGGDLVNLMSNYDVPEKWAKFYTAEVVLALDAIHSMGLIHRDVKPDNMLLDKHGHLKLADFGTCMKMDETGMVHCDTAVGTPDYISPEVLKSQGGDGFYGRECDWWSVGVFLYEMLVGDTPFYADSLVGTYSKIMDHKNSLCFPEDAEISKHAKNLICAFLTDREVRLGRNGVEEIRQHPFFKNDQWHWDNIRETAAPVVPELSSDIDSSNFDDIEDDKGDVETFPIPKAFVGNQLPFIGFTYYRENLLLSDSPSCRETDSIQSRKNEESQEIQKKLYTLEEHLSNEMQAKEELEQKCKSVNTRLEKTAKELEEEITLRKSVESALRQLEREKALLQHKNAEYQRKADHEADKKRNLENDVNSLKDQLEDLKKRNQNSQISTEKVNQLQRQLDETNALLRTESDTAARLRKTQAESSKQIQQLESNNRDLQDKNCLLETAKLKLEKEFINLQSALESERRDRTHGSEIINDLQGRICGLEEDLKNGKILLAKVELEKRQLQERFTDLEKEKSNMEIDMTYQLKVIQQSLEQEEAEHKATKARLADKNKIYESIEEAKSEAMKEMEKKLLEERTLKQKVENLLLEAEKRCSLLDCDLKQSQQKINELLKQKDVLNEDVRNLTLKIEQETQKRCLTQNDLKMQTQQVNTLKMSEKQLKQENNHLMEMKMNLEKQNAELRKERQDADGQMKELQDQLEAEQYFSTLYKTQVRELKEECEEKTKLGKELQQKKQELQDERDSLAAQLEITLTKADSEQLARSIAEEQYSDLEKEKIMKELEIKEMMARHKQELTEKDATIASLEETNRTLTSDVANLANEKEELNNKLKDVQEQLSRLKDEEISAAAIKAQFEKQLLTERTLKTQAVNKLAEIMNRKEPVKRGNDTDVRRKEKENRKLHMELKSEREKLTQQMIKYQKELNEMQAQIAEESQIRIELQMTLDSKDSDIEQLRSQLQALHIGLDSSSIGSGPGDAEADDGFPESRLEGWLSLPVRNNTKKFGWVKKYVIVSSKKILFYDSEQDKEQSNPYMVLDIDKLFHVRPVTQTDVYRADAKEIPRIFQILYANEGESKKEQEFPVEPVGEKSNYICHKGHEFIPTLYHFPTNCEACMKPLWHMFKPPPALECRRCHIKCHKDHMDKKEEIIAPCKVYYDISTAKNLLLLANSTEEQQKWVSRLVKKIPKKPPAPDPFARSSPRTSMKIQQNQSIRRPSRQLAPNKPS

IC50	SMILES
15.1 to 100 nM	COc1ccc(-n2nc(C(=O)NC3CC4(C3)CC(c3n[nH]c(=O)c5ccccc35)C4)c3c2C(=O)NCC3)cc1 [Example 289, 1-(4-methoxyphenyl)-7-oxo-N-((aR)-6-(4-oxo-3,4-dihydrophthalazin-1-yl)spiro[3.3]heptan-2-yl)-4,5,6,7-tetrahydro-1H-pyrazolo[3,4-c]pyridine-3-carboxamide]
15.1 to 100 nM	[H][C@]1(c2n[nH]c(=O)c3ccccc32)C[C@]2(C[C@@H](NC(=O)c3ccc(OC)nc3)C2)C1 (stereo partly drawn) [Example 341, 6-methoxy-N-((aR)-6-(4-oxo-3,4-dihydrophthalazin-1-yl)spiro[3.3]heptan-2-yl)nicotinamide]
5.1 to 15 nM	CS(=O)(=O)c1ccn2c(C(=O)N[C@H]3CC4(C3)C[C@H](c3n[nH]c(=O)c5ccccc53)C4)cnc2c1 (stereo partly drawn) [Example 465, 7-(methylsulfonyl)-N-((aR)-6-(4-oxo-3,4-dihydrophthalazin-1-yl)spiro[3.3]heptan-2-yl)imidazo[1,2-a]pyridine-3-carboxamide]
2.01 to 5 nM	O=C(NC1CC2(C1)CC(c1n[nH]c(=O)c3ccccc13)C2)c1noc2ccc(Cl)cc12 [Example 290, 5-chloro-N-((aR)-6-(4-oxo-3,4-dihydrophthalazin-1-yl)spiro[3.3]heptan-2-yl)benzo[d]isoxazole-3-carboxamide]
15.1 to 100 nM	[H][C@]1(c2n[nH]c(=O)c3ccccc32)C[C@]2(C[C@@H](NC(=O)c3ccc(-c4cnco4)cc3)C2)C1 (stereo partly drawn) [Example 358, 4-(oxazol-5-yl)-N-((aR)-6-(4-oxo-3,4-dihydrophthalazin-1-yl)spiro[3.3]heptan-2-yl)benzamide]
2.01 to 5 nM	[H][C@]1(c2n[nH]c(=O)c3ccccc32)C[C@]2(C[C@@H](NC(=O)c3cnc4cc(C)c(F)cn34)C2)C1 (stereo partly drawn) [Example 410, 6-fluoro-7-methyl-N-((aR)-6-(4-oxo-3,4-dihydrophthalazin-1-yl)spiro[3.3]heptan-2-yl)imidazo[1,2-a]pyridine-3-carboxamide]
15.1 to 100 nM	[H][C@]1(c2n[nH]c(=O)c3ccccc32)C[C@]2(C[C@@H](NC(=O)c3cn4ccc(-c5cccnc5)cc4n3)C2)C1 (some centres unmarked) [Example 453]
15.1 to 100 nM	O=C(NC1CC2(C1)CC(c1n[nH]c(=O)c3ccccc13)C2)c1cccc(-c2cn[nH]c2)c1 [Example 339, N-((aR)-6-(4-oxo-3,4-dihydrophthalazin-1-yl)spiro[3.3]heptan-2-yl)-3-(1H-pyrazol-4-yl)benzamide]
15.1 to 100 nM	[H][C@]1(c2n[nH]c(=O)c3ccccc32)C[C@]2(C[C@@H](NC(=O)c3cn4ccc(Br)cc4n3)C2)C1 (stereo partly drawn) [Example 374, 7-bromo-N-((aR)-6-(4-oxo-3,4-dihydrophthalazin-1-yl)spiro[3.3]heptan-2-yl)imidazo[1,2-a]pyridine-2-carboxamide]
5.1 to 15 nM	[H][C@]1(c2n[nH]c(=O)c3ccccc32)C[C@]2(C[C@@H](NC(=O)c3nnc4ccccn34)C2)C1 (stereo partly drawn) [Example 389, N-((aR)-6-(4-oxo-3,4-dihydrophthalazin-1-yl)spiro[3.3]heptan-2-yl)-[1,2,4]triazolo[4,3-a]pyridine-3-carboxamide]
15.1 to 100 nM	[H][C@]1(c2n[nH]c(=O)c3ccccc32)C[C@]2(C[C@@H](NC(=O)c3cn4ccccc4n3)C2)C1 (stereo partly drawn) [Example 377, N-((aR)-6-(4-oxo-3,4-dihydrophthalazin-1-yl)spiro[3.3]heptan-2-yl)imidazo[1,2-a]pyridine-2-carboxamide]
2.01 to 5 nM	[H][C@]1(c2n[nH]c(=O)c3ccccc32)C[C@]2(C[C@@H](NC(=O)c3cc4cccc(C)c4[nH]3)C2)C1 (stereo partly drawn) [Example 322, 7-methyl-N-((aR)-6-(4-oxo-3,4-dihydrophthalazin-1-yl)spiro[3.3]heptan-2-yl)-1H-indole-2-carboxamide]
5.1 to 15 nM	[H][C@]1(c2n[nH]c(=O)c3ccccc32)C[C@]2(C[C@@H](NC(=O)c3cc4c(OC)ccc(OC)c4[nH]3)C2)C1 (stereo partly drawn) [Example 334, 4,7-dimethoxy-N-((aR)-6-(4-oxo-3,4-dihydrophthalazin-1-yl)spiro[3.3]heptan-2-yl)-1H-indole-2-carboxamide]

More lines, now with the values behind:

SMILES	IC50
Cc1nc(N2CCC(F)(F)C2)sc1C(=O)NC1CC2(C1)CC(c1n[nH]c(=O)c3ccccc13)C2 [Example 41, 2-(3,3-difluoropyrrolidin-1-yl)-4-methyl-N-[(aR)-6-(4-oxo-3,4-dihydrophthalazin-1-yl)spiro[3.3]heptan-2-yl]-1,3-thiazole-5-carboxamide]	2.01 to 5 nM
O=C(NC1CC2(C1)CC(c1n[nH]c(=O)c3ccccc13)C2)c1cnn2cc(CCCN3CCC(F)(F)C3)ccc12 [Example 197, 6-(3-(3,3-difluoropyrrolidin-1-yl)propyl)-N-((aR)-6-(4-oxo-3,4-dihydrophthalazin-1-yl)spiro[3.3]heptan-2-yl)pyrazolo[1,5-a]pyridine-3-carboxamide]	0.2 to 2 nM
Cc1ccn2c(=O)[nH]nc(C3CC4(CC(NC(=O)c5cnn6cc(OCC(C)(C)O)ccc56)C4)C3)c12 (centres unmarked) [Example 281, 6-(2-hydroxy-2-methylpropoxy)-N-(6-(8-methyl-4-oxo-3,4-dihydropyrrolo[1,2-d][1,2,4]triazin-1-yl)spiro[3.3]heptan-2-yl)pyrazolo[1,5-a]pyridine-3-carboxamide, TFA]	5.1 to 15 nM
O=C(NC1CC2(C1)CC(c1n[nH]c(=O)c3ccccc13)C2)c1cnn2cc(OC3CCOC3)ccc12 [Example 105, N-((aR)-6-(4-oxo-3,4-dihydrophthalazin-1-yl)spiro[3.3]heptan-2-yl)-6-((tetrahydrofuran-3-yl)oxy)pyrazolo[1,5-a]pyridine-3-carboxamide]	0.2 to 2 nM
COc1ccc(-n2nnc(C(=O)NC3CC4(C3)CC(c3n[nH]c(=O)c5ccccc35)C4)c2C)cc1 [Example 115, 1-(4-methoxyphenyl)-5-methyl-N-((aR)-6-(4-oxo-3,4-dihydrophthalazin-1-yl)spiro[3.3]heptan-2-yl)-1H-1,2,3-triazole-4-carboxamide]	2.01 to 5 nM
O=C(NC1CC2(C1)CC(c1n[nH]c(=O)c3ccccc13)C2)c1cnn2cc(-n3ccc(=O)cc3)ccc12 (stereo not drawn) [Example 180, N-((αR)-6-(4-oxo-3,4-dihydrophthalazin-1-yl)spiro[3.3]heptan-2-yl)-6-(4-oxopyridin-1(4H)-yl)pyrazolo[1,5-α]pyridine-3-carboxamide]	15.1 to 100 nM
O=C(N[C@H]1CC2(C1)C[C@H](c1n[nH]c(=O)c3ccccc31)C2)c1cnn2cc(CCC(O)(C(F)(F)F)C(F)(F)F)ccc12 (stereo partly drawn) [Example 199, N-((aR)-6-(4-oxo-3,4-dihydrophthalazin-1-yl)spiro[3.3]heptan-2-yl)-6-(4,4,4-trifluoro-3-hydroxy-3-(trifluoromethyl)butyl)pyrazolo[1,5-a]pyridine-3-carboxamide]	2.01 to 5 nM
Cn1cc(-c2ccc3c(C(=O)NC4CC5(C4)CC(c4n[nH]c(=O)c6ccccc46)C5)nn(CC(C)(C)O)c3c2)cn1 (centres unmarked) [Example 147, 1-(2-hydroyx-2-methylpropyl)-6-(1-methyl-1H-pyrazol-4-yl)-N-((αR)-6-(4-oxo-3,4-dihydrophthalazin-1-yl)spiro[3.3]heptan-2-yl)-1H-indazole-3-carboxamide]	2.01 to 5 nM
O=C(N[C@H]1CC2(C1)C[C@H](c1n[nH]c(=O)c3ccccc31)C2)c1cnn2cc(O[C@@H]3CCOC3)ccc12 (stereo partly drawn) [Example 122, N-((aR)-6-(4-oxo-3,4-dihydrophthalazin-1-yl)spiro[3.3]heptan-2-yl)-6-((tetrahydrofuran-3-yl)oxy)pyrazolo[1,5-a]pyridine-3-carboxamide]	0.2 to 2 nM
O=C(NC1CC2(C1)CC(c1n[nH]c(=O)c3ccccc13)C2)c1cn2c(n1)sc1ccccc12 [Example 94, N-((aR)-6-(4-oxo-3,4-dihydrophthalazin-1-yl)spiro[3.3]heptan-2-yl)benzo[d]imidazo[2,1-b]thiazole-2-carboxamide]	5.1 to 15 nM
Cn1cc(-c2ccc3c(c2)CN(C(=O)NC2CC4(C2)CC(c2n[nH]c(=O)c5ccccc25)C4)C3)c(C(F)(F)F)n1 [Example 248, 5-(1-methyl-3-(trifluoromethyl)-1H-pyrazol-4-yl)-N-((aR)-6-(4-oxo-3,4-dihydrophthalazin-1-yl)spiro[3.3]heptan-2-yl)isoindoline-2-carboxamide]	5.1 to 15 nM
COc1ccccc1-n1nnc(C(=O)NC2CC3(C2)CC(c2n[nH]c(=O)c4ccccc24)C3)c1C [Example 117, 1-(2-methoxyphenyl)-5-methyl-N-((aR)-6-(4-oxo-3,4-dihydrophthalazin-1-yl)spiro[3.3]heptan-2-yl)-1H-1,2,3-triazole-4-carboxamide]	15.1 to 100 nM
CN(C)CCCc1ccc2c(C(=O)NC3CC4(C3)CC(c3n[nH]c(=O)c5ccccc35)C4)cnn2c1 [Example 193, 6-(3-(dimethylamino)propyl)-N-((aR)-6-(4-oxo-3,4-dihydrophthalazin-1-yl)spiro[3.3]heptan-2-yl)pyrazolo[1,5-a]pyridine-3-carboxamide]	5.1 to 15 nM
N#Cc1c(O)ccc2c(C(=O)NC3CC4(C3)CC(c3n[nH]c(=O)c5ccccc35)C4)cnn12 [Example 111, 7-cyano-6-hydroxy-N-((aR)-6-(4-oxo-3,4-dihydrophthalazin-1-yl)spiro[3.3]heptan-2-yl)pyrazolo[1,5-a]pyridine-3-carboxamide]	15.1 to 100 nM
CC1(C)CN(CCOc2ccc3c(C(=O)NC4CC5(C4)CC(c4n[nH]c(=O)c6ccccc46)C5)cnn3c2)CCO1 [Example 187, 6-(2-(2,2-dimethylmorpholino)ethoxy)-N-((aR)-6-(4-oxo-3,4-dihydrophthalazin-1-yl)spiro[3.3]heptan-2-yl)pyrazolo[1,5-a]pyridine-3-carboxamide]	0.2 to 2 nM
O=C(NC1CC2(C1)CC(c1n[nH]c(=O)c3ccccc13)C2)c1onc2ccccc12 [Example 78, N-((aR)-6-(4-oxo-3,4-dihydrophthalazin-1-yl)spiro[3.3]heptan-2-yl)benzo[c]isoxazole-3-carboxamide]	5.1 to 15 nM
